Data taken from patent US11478474B2, “2-(3′-(hydroxymethyl)-1-methyl-5-((5-(2-methyl-4-(oxetan-3-yl)piperazin-1-yl)pyridin-2-yl)amino)-6-oxo-1,6-dihydro-[3,4′-bipyridin]-2′-yl)-7,7-dimethyl-7,8-dihydro-2H-cyclopenta[4,5]pyrrolo[1,2-a]pyrazin-1(6H)-one as a BTK inhibitor” (HUTCHISON MEDIPHARMA LIMITED, priority 2020, dated 2022).

Key:
[1] = target: phosphorylated BTK in Ramos cells (Homo sapiens (Human), UniProt Q06187); assay: Determination of phosphorylated BTK in Ramos cells (BTK phospho-Y223 HTRF); assay type: cell-based; conditions: anti-human IgM + hydrogen peroxide stimulation
Method: Determination of Phosphorylated BTK in Ramos Cells
(§1) 1. Reagents and Materials
Ramos cells: Ramos cells were purchased from American Standard Biological Collection Center ATCC Cell Bank, PRMI 1640 medium containing L-glutamine, 1.5 g/L of sodium bicarbonate, 2.383 g/L of HEPES solution, 0.11 g/L of sodium pyruvate and 4.5 g/L of glucose was used, added 10% fetal bovine serum FBS, and placed in a 5% CO2, 37° C. cell incubator for normal culture;
Phosphorylated BTK HTRF detection kit (BTK phospho-Y223 HTRF kit): Cisbio, Cat #63ADK017PEH;
Ramos cells were starved in PRMI 1640 medium with 1% FBS for 2 hours. The starved Ramos cells were diluted with Hank's balanced salt solution to 5.0×10^6 cells/ml, seeded in a 96-well plate with 20 μL/well (1.0×10^5 cells/well), and cultured in a 5% CO2, 37° C. cell incubator. After culturing for 1 hour, the test compound was diluted with Hank's balanced salt solution in 4-fold gradient to the corresponding concentrations, and then 5 μL/well of the diluted test compound with different concentrations (the final concentrations of the test compound were 3.0, 0.75, 0.188, 0.047, 0.012, 0.0029, 0.0007 and 0.00018 μM, and the final concentration of DMSO was 0.3%, double replicate wells) or 5 μL/well of control solution (1.5% DMSO, 8 replicate wells) were added to 20 μL/well of cell culture system, which incubated together for another hour, then 5 μL/well of a mixed solution of human immunoglobulin M (final concentration was 10 μg/mL) and hydrogen peroxide (final concentration was 3.3 mM) diluted with Hank's balanced salt solution was added to the treating wells for the test compound and the control treating wells for anti-human immunoglobulin M, and 5 μL/well of Hank's balanced salt solution was added to negative control treating wells. The plate was incubated in a 5% CO2, 37° C. cell incubator for 10 minutes.
10 μL/well of cell lysis buffer was added to each well of a 96-well plate, which was mixed well and lysed at room temperature for 30 minutes. 16 μL/well of lysis buffer was pipetted to a new 384 well plate, and then added 4 μL/well of phosphorylated BTK antibody, centrifuged (1000 rpm) for 1 minute, then shaken for 1 minute, further centrifuged (1000 rpm) for 1 minute, and finally placed in a constant temperature incubator overnight. Detection was performed on the next day.
The 384 well plate incubated overnight in the constant temperature incubator was taken out to detect the luminescence signal using the Envision microwell plate reader at the […]. The reading value at 665 nm/615 nm of each well multiplied by 104 was used as the signal value of each well.
The average signal value of the wells supplemented with the mixed solution of human immunoglobulin M (final concentration was 10 μg/mL) and hydrogen peroxide (final concentration was 3.3 mM) without the test compound was regarded as the high value, and the average signal value of the wells without immunoglobulin M stimulation and without the test compound was regarded as the low value. According to the signal value in each well, the inhibition ratio (%) of each concentration of compounds was calculated, and the 205 model in XL-Fit 5.3 software (ID Business Solutions Limited) was used to obtain an IC50 value.
The inhibition ratio is calculated as follows: inhibition ratio (%)=100%−{(treating well for the test compound−negative control treating well)/(control treating well for anti-human immunoglobulin M−negative control treating well)}×100%, wherein,
Treating well for the test compound: represents the signal value of Ramos cells treated with anti-human immunoglobulin M, hydrogen peroxide and the test compound.
Control treating well for anti-human immunoglobulin M: represents the signal value of Ramos cells treated with anti-human immunoglobulin M, hydrogen peroxide but without the test compound. […]

BTK recombinant protein = BTK recombinant protein (Homo sapiens (Human), UniProt Q06187); assay: Determination of biochemical BTK (Z'-LYTE kinase assay)
From the text: Example 2 Determination of Biochemical BTK
as §1
BTK recombinant protein: Invitrogen, Cat #PV3363;
Z′-LYTE® kinase test kit-tyrosine 1 peptide: Invitrogen, Cat #PV3190;
Z′-LYTE® biochemical assay employs a fluorescence resonance energy transfer (FRET)—based, coupled-enzyme format and is based on the differential sensitivity of phosphorylated and non-phosphorylated peptides to proteolytic cleavage. Both ends of the short peptide substrate are labeled with two fluorescent groups to form a FRET paired combination. In the primary reaction (the Kinase Reaction), the kinase transfers the γ-phosphate of ATP to a single […] residue on the short peptide substrate. In the secondary reaction (the development reaction), the non-phosphorylated short peptides were recognized and cleaved by a site-specific protease (the development reagent). Phosphorylated short peptides can resist such cleavage. Cleavage of short peptides can disrupt the donor (such as coumarin) and receptor fluorophores (fluorescein) on the short peptides, while the phosphorylated short peptides can maintain FRET. The calculation method of the ratio is as follows, and the ratio of the respective emission signals generated by the donor fluorophores emitted (after excitation at 400 nm) to the receptors is calculated. Emission signal ratio=emitted light by coumarin (445 nm)/emitted light by fluorescein (520 nm). If the FRET short peptide is phosphorylated (such as no kinase inhibitor), the emitted light ratio will remain in a lower level. If the FRET short peptide is non-phosphorylated (such as kinase inhibitor), the emitted light ratio will be in a higher level. In this way, the inhibitory effects of different compound inhibitors on BTK kinase activity would be distinguished.
The experiment were carried out according to the instructions of the Z′-LYTE® kinase test kit-tyrosine 1 peptide. Reagent preparation: 1.33× kinase buffer: 5× kinase buffer was diluted with water to 1.33× kinase buffer; an enzyme solution: the kinase was dissolved in 1.33× kinase buffer with the final working concentration being 3.32 nM; a short peptide solution: a short peptide stock solution (1 mM dissolved in DMSO) was dissolved in 1.33× kinase buffer with the final working concentration being 2 μM; Z′-LYTE Tyr01 phosphorylated short peptide solution, 0.6 μl of stock solution (1 mM dissolved in DMSO) was dissolved in 149.4 μl of 1.33× kinase buffer; an ATP solution: an ATP stock solution (10 mM aqueous solution) was dissolved in 1.33× kinase buffer with the final working concentration being 32 μM; a color-developing solution: color-developing solution B was dissolved in color-developing buffer with the final working concentration being 1× color-developing solution; 4× compound preparation: the compound was diluted in 3-fold gradient concentration to finally obtain 4% DMSO aqueous solution containing different concentrations of the compound, with the final working concentration being 3000, 1000, 333.33, 111.11, 37.04, 12.35, 4.12, 1.37 nM, 8 concentration points in total.
Specific steps of the experiment: In the experiment, there were three control groups, each with 8 replicate wells, which were C1 100% inhibition group (no ATP), C2 0% inhibition group (with ATP), and C3 100% phosphorylation group, respectively. 2.5 μl of serially diluted compound was added to each well of a 384-well plate, with double replicate wells, and 4% DMSO solution was added to wells C1, C2, and C3. After that, except for wells C3, 2.5 μl of BTK enzyme solution was added to each remaining well, which was left to stand at 4° C. for 30 minutes. After that, except for wells C3, 2.5 μl of short peptide solution was added to each well, and 5 μl of phosphorylated short peptide solution was added to each of wells C3. 2.5 μl of 1.33× kinase buffer was added to each of wells C1 and C3, and 2.5 μl of ATP solution was added to each of the remaining wells. […]

BTK recombinant protein, sequence (Q06187 whole entry): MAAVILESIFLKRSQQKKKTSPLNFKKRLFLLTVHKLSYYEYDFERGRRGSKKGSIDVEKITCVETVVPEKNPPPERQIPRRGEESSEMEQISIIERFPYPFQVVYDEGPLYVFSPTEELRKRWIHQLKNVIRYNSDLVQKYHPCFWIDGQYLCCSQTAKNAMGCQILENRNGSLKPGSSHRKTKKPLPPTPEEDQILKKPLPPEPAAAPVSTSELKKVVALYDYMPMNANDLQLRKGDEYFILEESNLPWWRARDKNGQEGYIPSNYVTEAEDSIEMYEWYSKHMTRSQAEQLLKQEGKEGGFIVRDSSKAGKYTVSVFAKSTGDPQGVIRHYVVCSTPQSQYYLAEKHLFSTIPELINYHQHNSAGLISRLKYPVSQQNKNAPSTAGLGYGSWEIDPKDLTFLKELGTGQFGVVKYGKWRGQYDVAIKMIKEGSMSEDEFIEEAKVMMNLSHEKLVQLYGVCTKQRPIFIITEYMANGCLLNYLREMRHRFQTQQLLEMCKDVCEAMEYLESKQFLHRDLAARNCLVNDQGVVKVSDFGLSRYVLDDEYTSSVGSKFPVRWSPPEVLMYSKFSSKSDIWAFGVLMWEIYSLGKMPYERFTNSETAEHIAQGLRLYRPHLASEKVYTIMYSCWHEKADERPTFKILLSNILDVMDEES
phosphorylated BTK in Ramos cells, sequence (Q06187 whole entry): as above

Row | IC50 [1] | IC50 (BTK recombinant protein) | Structure (SMILES)
1 | 0.006 µM | 0.017 µM | COC1CN(c2ccc(Nc3cc(-c4ccnc(-n5ccn6c7c(cc6c5=O)CC(C)(C)C7)c4CO)cn(C)c3=O)nc2)C1 [Compound 35]
2 | 0.012 µM | 0.031 µM | Cn1cc(-c2ccnc(-n3ccn4c5c(cc4c3=O)CC(C)(C)C5)c2CO)cc(Nc2ccc(C3=CCN(C4COC4)CC3)cn2)c1=O [Compound 36]
3 | 0.011 µM | 0.132 µM | Cn1cc(-c2ccnc(-n3ccn4c5c(cc4c3=O)CC(C)(C)C5)c2CO)cc(Nc2ccc(-c3ccc(C4COC4)cc3)cn2)c1=O [Compound 37]
4 | 0.003 µM | 0.024 µM | [2H]C([2H])([2H])n1cc(-c2ccnc(-n3ccn4c5c(cc4c3=O)CC(C)(C)C5)c2CO)cc(Nc2ccc(N3CCN(C4COC4)C[C@@H]3C)cn2)c1=O [Compound 39]
5 | > 3 µM | > 3 µM | CC(C)Nc1cc(-c2ccnc(-n3ccn4c5c(cc4c3=O)CC(C)(C)C5)c2CO)cn(C)c1=O [Compound 40]
6 | 0.002 µM | 0.012 µM | CN(c1ccc(Nc2cc(-c3ccnc(-n4ccn5c6c(cc5c4=O)CC(C)(C)C6)c3CO)cn(C)c2=O)nc1)C1COC1 [Compound 41]
7 | 0.005 µM | 0.011 µM | Cn1cc(-c2ccnc(-n3ccn4c5c(cc4c3=O)CC(C)(C)C5)c2CO)cc(Nc2ccc(NC3CCCOC3)cn2)c1=O (stereo not shown) [Compound 45]
8 | 0.005 µM | 0.008 µM | Cn1cc(-c2ccnc(-n3ccn4c5c(cc4c3=O)CC(C)(C)C5)c2CO)cc(Nc2ccc(N[C@@H]3CC[C@@H](CO)OC3)cn2)c1=O [Compound 46]
9 | 0.003 µM | 0.003 µM | Cn1cc(-c2ccnc(-n3ccn4c5c(cc4c3=O)CC(C)(C)C5)c2CO)cc(Nc2ccc(C(=O)N3CCOCC3)cn2)c1=O [Compound 47]
10 | 0.008 µM | 0.01 µM | COCCN(c1ccc(Nc2cc(-c3ccnc(-n4ccn5c6c(cc5c4=O)CC(C)(C)C6)c3CO)cn(C)c2=O)nc1)C(C)C [Compound 51]
11 | 0.018 µM | 0.018 µM | C[C@H]1CN(C2COC2)CCN1c1ccc(Nc2cc(-c3ccnc(-n4ccn5c(cc6cccc(F)c65)c4=O)c3CO)cn(C)c2=O)nc1 [Compound 52]
12 | 0.025 µM | 0.033 µM | C[C@H]1CN(C2COC2)CCN1c1ccc(Nc2cc(-c3ccnc(-n4ccn5c(cc6c(F)cccc65)c4=O)c3CO)cn(C)c2=O)nc1 [Compound 53]
13 | 0.016 µM | 0.015 µM | Cc1cc(Nc2cc(-c3ccnc(-n4ccn5c6c(cc5c4=O)CC(C)(C)C6)c3CO)cn(C)c2=O)ncn1 [Compound 54]
14 | 0.008 µM | 0.019 µM | Cn1cc(-c2ccnc(-n3ccn4c5c(cc4c3=O)CC(C)(C)C5)c2CO)cc(Nc2ccccn2)c1=O [Compound 55]
15 | 0.002 µM | 0.004 µM | C[C@@H]1CN(c2ccc(Nc3cc(-c4ccnc(-n5ccn6c(c(F)c7cc(F)ccc76)c5=O)c4CO)cn(C)c3=O)nc2)[C@@H](C)CN1C1COC1 [Compound 61]
16 | 0.003 µM | 0.021 µM | C[C@H]1CN(C2COC2)CCN1c1ccc(Nc2cc(-c3ccnc(-n4ccn5c6c(c(Br)c5c4=O)CC(C)(C)C6)c3CO)cn(C)c2=O)nc1 [Compound 62]
17 | 0.002 µM | 0.014 µM | C[C@H]1CN(C2COC2)CCN1c1ccc(Nc2cc(-c3ncnc(-n4ccn5c6c(cc5c4=O)CC(C)(C)C6)c3CO)cn(C)c2=O)nc1 [Compound 65]
18 | 0.002 µM | 0.011 µM | C[C@H]1CN(C2CCOC2)CCN1c1ccc(Nc2cc(-c3ccnc(-n4ccn5c6c(cc5c4=O)CC(C)(C)C6)c3CO)cn(C)c2=O)nc1 (stereo partly shown) [Compound 66]
19 | 0.06 µM | 0.082 µM | C[C@H]1CN(C2COC2)CCN1c1ccc(Nc2cc(-c3ccnc(-n4ccn5c(cc6cccnc65)c4=O)c3CO)cn(C)c2=O)nc1 [Compound 67]
20 | 0.002 µM | 0.005 µM | CC(=O)N1CCn2nc(Nc3cc(-c4ccnc(-n5ccn6c7c(cc6c5=O)CC(C)(C)C7)c4CO)cn(C)c3=O)cc2C1 [Compound 68, 2-(5-((5-acetyl-4,5,6,7-tetrahydropyrazolo[1,5-a]pyrazin-2-yl)amino)-3′-(hydroxymethyl)-1-methyl-6-oxo-1,6-dihydro-[3,4′-bispyridin]-2′-yl)-7,7-dimethyl-7,8-dihydro-2H-cyclopenta[4,5]pyrrolo[1,2-a]pyrazin-1(6H)-one]
21 | 0.002 µM | 0.01 µM | COCCN1CCn2nc(Nc3cc(-c4ccnc(-n5ccn6c7c(cc6c5=O)CC(C)(C)C7)c4CO)cn(C)c3=O)cc2C1 [Compound 70, 2-(3′-(hydroxymethyl)-5-((5-(2-methoxymethyl)-4,5,6,7-tetrahydropyrazolo[1,5-a]pyrazin-2-yl)amino)-1-methyl-6-oxo-1,6-dihydro-[3,4′-bispyridin]-2′-yl)-7,7-dimethyl-7,8-dihydro-2H-cyclopenta[4,5]pyrrolo[1,2-a]pyrazin-1(6H)-one]
22 | 0.097 µM | 0.058 µM | C[C@H]1CN(C2COC2)CCN1c1ccc(Nc2cc(-c3ccnc(-n4ccn5c6c(cc5c4=O)CC(C)(C)C6)c3C=O)cn(C)c2=O)nc1 [Compound 72]
23 | 0.116 µM | 0.216 µM | Cn1cc(Nc2cc(-c3ccnc(-n4ccn5c6c(cc5c4=O)CCC6)c3CO)cn(C)c2=O)nn1 [Compound 73]
